Measured values published in patent US8211646B1, “Methods of treating ovarian cancer by modulating SnoN” (University of South Florida, priority 2008, dated 2012).

Columns and labels:
Assay type in all cases: cell-based
[1] = test system: EVI1 and TGFβRII RNA; assay: qPCR of EVI1 and TGFβRII RNA levels; conditions: 5 μM As2O3, 18 hours
Procedure: RNA was isolated using the RNeasy Mini Kit (Qiagen, Valencia, Calif.) from normal, benign, stage I-IV ovarian patient samples and quantitative PCR was performed. A one-step RT-PCR Taqman master mix from Applied Biosystems (Foster City, Calif.) and primers for genes in the 3q26.2 amplicon were obtained using Genebank sequences as well as from Assays on Demand (Hs00180524_m1 (SnoN/SkiL)), with the following primers and probe sets.
EVI1 Exon III—(detects both EVI1 and MDS1/EVI1):
Primers/probe sequences for SnoN (Hs00180524_m1), TGFβRII (Hs00234253_m1), and LC3 (Hs00261291_m1) were obtained from Applied Biosystems (Assays by Design).
mRNA levels were determined using the One-Step-Plus Applied Biosystems Detection System or ABI PRISM 7700 Sequence Detection System using β-actin as a reference. […] 95° C. for 15 s followed by 60° C. for 1 min Using the correlative method, RNA-fold change in expression was calculated as Ct of gene—Ct of β-actin to generate ΔCt from which ΔCt of the normal sample was subtracted. […]
The clinical inhibitors As2O3, geldanamycin (17-AAG) (dissolved in dimethylsulfoxide [DMSO]), and MG132 (dissolved in DMSO) were obtained from Sigma-Aldrich (St. Louis, Mo.), Fisher Scientific (Pittsburgh, Pa.), and Alexis Biochemicals (Farmingdale, N.Y.), respectively. […] In addition, for selected studies, RNA was isolated, quantified, and used for qPCR analysis.

[2] = test system: ovarian cancer cells; assay: Cell titer glo cell viability assay
Procedure: Measurement of Intracellular ATP Levels. T80, HEY, and SKOV3 ovarian cells were seeded in triplicate for each treatment group at 5000 cells per well into each well of a 96 well white-opaque plate. Following overnight cell attachment, cells were treated for 18 hours with appropriate doses of arsenic trioxide or geldanamycin (0 mM, 2 μM, 5 μM, 10 μM, 25 μM, and 50 μM). Following termination of the cell treatments, the media was removed from the wells and replaced with 100 μl of phosphate-buffered saline (PBS). The plate was equilibrated to room temperature, 100 μl of Cell-Titer Glo reagent (Promega, Madison, Wis.) was added, and mixed on a plate shaker for 2 minutes. The plate was further incubated for 10 minutes at room temperature prior to reading with a Biotek luminescence plate reader to obtain relative light unit (RLU) measurements. Empty wells (containing no cells) were utilized as a correction for background luminescence. All experiments were performed in triplicate.

[3] = test system: TAK1, SMAD2/3, TGFβRII, AKT, phospho-SMAD2; assay: Western analysis of other TGFβ signaling mediators
Procedure: Proteins were resolved on an 8%, 12%, or 15% SDS-PAGE gel (as appropriate) and electrophoretically transferred to polyvinyldifluoride (PVDF) membranes. After blocking with 5% (w/v) milk in TBST (Tris-Buffered Saline containing 0.1% Tween-20) for one hour at room temperature, membranes were incubated with primary antibodies (at appropriate dilution) overnight at 4° C., followed by extensive washing and incubation for 1 hour with the appropriate horseradish peroxidase-conjugated secondary antibodies (BioRad, Hercules, Calif.). Blots were washed extensively. A rabbit polyclonal EVI1 antibody was obtained (1:3000 dilution, St. Jude's Children's Hospital, Memphis, Tenn.). SnoN rabbit polyclonal (1:1000 dilution), PML, and p21 SMURF2 rabbit polyclonal (1:500 dilution), MRP1 mouse monoclonal (1:500 dilution) and GAPDH mouse monoclonal (1:250 dilution) antibodies were obtained from Santa Cruz Biotechnology (Santa Cruz, Calif.). TGFβRII rabbit polyclonal (1:1000 dilution) antibody was obtained from Strategic Diagnostics (Newark, Del.). Smad2/3 rabbit polyclonal (1:1000 dilution), Beclin-1 rabbit polyclonal (1:1000 dilution), AKT rabbit polyclonal (1:1000 dilution), TAK1 rabbit polyclonal (1:1000 dilution), PARP rabbit polyclonal (1:1000 dilution), Beclin-1 rabbit polyclonal (1:1000 dilution), caspase-3 rabbit polyclonal (1:1000) which detects the pro-caspase form, and ATG5 rabbit polyclonal (1:1000 dilution), LC3-II rabbit polyclonal (1:1000 dilution) antibodies were obtained from Cell Signaling Technology (Danvers, Mass.). The HSP27 mouse monoclonal (1:1000 dilution) antibody was obtained from Stressgen (Ann Arbor, Mich.). Blots were developed using chemiluminescence substrates (Amersham Piscataway, N.J. or BioRad, Hercules, Calif.). Monoclonal PAI-1 antibody was obtained from BD Pharmingen. PSMAD2, total SMAD2/3, p-ERK, p-AKT, and total AKT antibodies were obtained from Cell Signaling Technology. A monoclonal antibody against Arkadia was obtained from Abnova (Taiwan).
Densitometric analysis was performed using the HP Scanjet 5590 and the Image J program (Image Processing and Analysis in Java, NIH Image Software). Bands were selected and the intensity values were normalized to those for GAPDH. The values are presented as fold-changes relative to control siRNA treated cells.
The clinical inhibitors As2O3, geldanamycin (17-AAG) (dissolved in dimethylsulfoxide [DMSO]), and MG132 (dissolved in DMSO) were obtained from Sigma-Aldrich (St. Louis, Mo.), Fisher Scientific (Pittsburgh, Pa.), and Alexis Biochemicals (Farmingdale, N.Y.), respectively. N-acetyl-L-cysteine (NAC; dissolved in media) and Bortezomib (PS-341; dissolved in DMSO) were obtained from Fisher Scientific. 3-Methyladenine (3-MA; dissolved in media) was obtained from MP Biomedicals (Solon, Ohio). Tiron (4,5-Dihydroxy-1,3-benzenedisulfonic acid, dissolved in media) was obtained from Fisher Scientific. zVAD-fmk (dissolved in DMSO) and bafilomycin A (dissolved in DMSO) was obtained from Axxora LLC (San Diego, Calif.). Bovine catalase was obtained from Sigma-Aldrich. HBED and Mn TBAP was obtained from ENZO Life Sciences (Farmingdale, N.Y.). Ovarian cells were plated in 6-well plates at 250,000 cells per well and grown in complete medium. The following day, the cells were treated with 5 μM MG132, As2O3 (between 2-50 μM), 17-AAG (between 2-50 μM), NAC (Fisher Scientific, between 25 μM to 1 mM), Tiron (between 25 μM to 1 mM), 3-MA (0.1 mM to 10 mM), or zVAD-fmk (25 μM to 100 μM). For control cells, DMSO (a final concentration of <0.5%) was added to compare appropriately to drugs dissolved in DMSO. After the appropriate incubation time (6 or 18 hours), cell lysates were collected, protein quantified, and SDS-PAGE/western analysis was performed. In addition, for selected studies, RNA was isolated, quantified, and used for qPCR analysis.

## Arsenic trioxide [As2O3]
[1]
  decrease in EVI1 and TGFβRII RNA levels: < 20%
[2]; 25 μM, 18 hour treatment, relative to control cells
  reduction of cell growth (cellular viability): 50%
[2]; SKOV3 (high EVI1) compared to T80 (low EVI1), 2-50 μM, 18 hours
  sensitivity of cellular viability to As2O3: more resistant
[3]; HEY and OVCA429, 18 hours, increasing doses
  TAK1, SMAD2/3, TGFβRII and AKT protein: markedly reduced
[3]; HEY, 18 hours As2O3
  EVI1, TAK1, SMAD2/3, TGFβRII expression levels: Dramatic decreases
